Measurements: PubChem BioAssay (NCI)
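Grown in 96-well plates, cells were treated for 48 hours with each compound at five concentrations. Insufficient inhibition: endpoint recorded as highest concentration tested. At the GI50, growth is halved. TGI denotes the concentration required for complete inhibition of growth.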

Columns and labels:
Test in all cases: DTP human tumour cell line panel, 48 h
786-0 renal = test system: 786-0 renal
NCI-H23 lung = test system: NCI-H23 lung
IGROV1 ovarian = test system: IGROV1 ovarian
CCRF-CEM leukemia = test system: CCRF-CEM leukemia
SN12C renal = test system: SN12C renal
HCC-2998 colon = test system: HCC-2998 colon
MOLT-4 leukemia = test system: MOLT-4 leukemia
NCI-H226 lung = test system: NCI-H226 lung
HOP-92 NSCLC = test system: HOP-92 NSCLC
HS 578T breast = test system: HS 578T breast
KM12 colon = test system: KM12 colon
SF-539 CNS = test system: SF-539 CNS
UO-31 renal = test system: UO-31 renal
RXF 393 renal = test system: RXF 393 renal
SK-MEL-5 melanoma = test system: SK-MEL-5 melanoma
K-562 leukemia = test system: K-562 leukemia
UACC-257 melanoma = test system: UACC-257 melanoma
SK-MEL-2 melanoma = test system: SK-MEL-2 melanoma
SK-MEL-28 melanoma = test system: SK-MEL-28 melanoma
OVCAR-8 ovarian = test system: OVCAR-8 ovarian
HCT-116 colon = test system: HCT-116 colon
OVCAR-4 ovarian = test system: OVCAR-4 ovarian
SNB-19 CNS = test system: SNB-19 CNS
A549 NSCLC = test system: A549 NSCLC
A498 renal = test system: A498 renal
UACC-62 melanoma = test system: UACC-62 melanoma
MCF7 breast = test system: MCF7 breast
ACHN renal = test system: ACHN renal
SF-295 CNS = test system: SF-295 CNS
NCI-H522 lung = test system: NCI-H522 lung
COLO 205 colon = test system: COLO 205 colon
NCI-H460 lung = test system: NCI-H460 lung
CAKI-1 renal = test system: CAKI-1 renal
BT-549 breast = test system: BT-549 breast
OVCAR-5 ovarian = test system: OVCAR-5 ovarian
PC-3 prostate = test system: PC-3 prostate
U251 CNS = test system: U251 CNS
SNB-75 CNS = test system: SNB-75 CNS
DU-145 prostate = test system: DU-145 prostate
SR leukemia = test system: SR leukemia
T-47D breast = test system: T-47D breast
SK-OV-3 ovarian = test system: SK-OV-3 ovarian
TK-10 renal = test system: TK-10 renal
M14 melanoma = test system: M14 melanoma
OVCAR-3 ovarian = test system: OVCAR-3 ovarian
LOX IMVI melanoma = test system: LOX IMVI melanoma
SF-268 CNS = test system: SF-268 CNS
EKVX NSCLC = test system: EKVX NSCLC
MDA-MB-435 = test system: MDA-MB-435
MDA-MB-231 breast = test system: MDA-MB-231 breast
RPMI-8226 leukemia = test system: RPMI-8226 leukemia
HL-60(TB) leukemia = test system: HL-60(TB) leukemia
HOP-62 NSCLC = test system: HOP-62 NSCLC
NCI/ADR-RES ovarian = test system: NCI/ADR-RES ovarian
MALME-3M melanoma = test system: MALME-3M melanoma
HCT-15 colon = test system: HCT-15 colon

SMILES: Cc1ccc2c(c1)C(=O)c1c-2n(CCCN)c(=O)c2cc([N+](=O)[O-])ccc12
- GI50 (786-0 renal): 57.6 nM
- TGI (786-0 renal): 208 nM
- GI50 (NCI-H23 lung): 356 nM
- TGI (NCI-H23 lung): 1160 nM
- GI50 (IGROV1 ovarian): 176 nM
- TGI (IGROV1 ovarian): 985 nM
- GI50 (CCRF-CEM leukemia): 6.83 nM
- TGI (CCRF-CEM leukemia): 55.9 nM
- GI50 (SN12C renal): 281 nM
- TGI (SN12C renal): 1020 nM
- GI50 (HCC-2998 colon): 531 nM
- TGI (HCC-2998 colon): 1170 nM
- GI50 (MOLT-4 leukemia): 24.4 nM
- TGI (MOLT-4 leukemia): 129 nM
- GI50 (NCI-H226 lung): 540 nM
- TGI (NCI-H226 lung): 1330 nM
- GI50 (HOP-92 NSCLC): 435 nM
- TGI (HOP-92 NSCLC): 1180 nM
- GI50 (HS 578T breast): 1540 nM
- TGI (HS 578T breast): 3440 nM
- GI50 (KM12 colon): 433 nM
- TGI (KM12 colon): 1230 nM
- GI50 (SF-539 CNS): 732 nM
- TGI (SF-539 CNS): 1440 nM
- GI50 (UO-31 renal): 144 nM
- TGI (UO-31 renal): 811 nM
- GI50 (RXF 393 renal): 627 nM
- TGI (RXF 393 renal): 1310 nM
- GI50 (SK-MEL-5 melanoma): 1100 nM
- TGI (SK-MEL-5 melanoma): 3600 nM
- GI50 (K-562 leukemia): 110 nM
- TGI (K-562 leukemia): 721 nM
- GI50 (UACC-257 melanoma): 1520 nM
- TGI (UACC-257 melanoma): 4970 nM
- GI50 (SK-MEL-2 melanoma): 1370 nM
- TGI (SK-MEL-2 melanoma): 4150 nM
- GI50 (SK-MEL-28 melanoma): 2270 nM
- TGI (SK-MEL-28 melanoma): 4630 nM
- GI50 (OVCAR-8 ovarian): 387 nM
- TGI (OVCAR-8 ovarian): 1330 nM
- GI50 (HCT-116 colon): 166 nM
- TGI (HCT-116 colon): 718 nM
- GI50 (OVCAR-4 ovarian): 605 nM
- TGI (OVCAR-4 ovarian): 1260 nM
- GI50 (SNB-19 CNS): 178 nM
- TGI (SNB-19 CNS): 706 nM
- GI50 (A549 NSCLC): 200 nM
- TGI (A549 NSCLC): 887 nM
- GI50 (A498 renal): 5680 nM
- TGI (A498 renal): 17100 nM
- GI50 (UACC-62 melanoma): 522 nM
- TGI (UACC-62 melanoma): 1110 nM
- GI50 (MCF7 breast): 113 nM
- TGI (MCF7 breast): 836 nM
- GI50 (ACHN renal): 106 nM
- TGI (ACHN renal): 609 nM
- GI50 (SF-295 CNS): 120 nM
- TGI (SF-295 CNS): 663 nM
- GI50 (NCI-H522 lung): 200 nM
- TGI (NCI-H522 lung): 985 nM
- GI50 (COLO 205 colon): 178 nM
- TGI (COLO 205 colon): 913 nM
- GI50 (NCI-H460 lung): 34.9 nM
- TGI (NCI-H460 lung): 629 nM
- GI50 (CAKI-1 renal): 71.6 nM
- TGI (CAKI-1 renal): 419 nM
- GI50 (BT-549 breast): 746 nM
- TGI (BT-549 breast): 1570 nM
- GI50 (OVCAR-5 ovarian): 873 nM
- TGI (OVCAR-5 ovarian): 1580 nM
- GI50 (PC-3 prostate): 437 nM
- TGI (PC-3 prostate): 1170 nM
- GI50 (U251 CNS): 124 nM
- TGI (U251 CNS): 832 nM
- GI50 (SNB-75 CNS): 385 nM
- TGI (SNB-75 CNS): 1070 nM
- GI50 (DU-145 prostate): 262 nM
- TGI (DU-145 prostate): 890 nM
- GI50 (SR leukemia): 39.4 nM
- TGI (SR leukemia): 201 nM
- GI50 (T-47D breast): 157 nM
- TGI (T-47D breast): 461 nM
- GI50 (SK-OV-3 ovarian): 147 nM
- TGI (SK-OV-3 ovarian): 502 nM
- GI50 (TK-10 renal): 567 nM
- TGI (TK-10 renal): 1240 nM
- GI50 (M14 melanoma): 452 nM
- TGI (M14 melanoma): 1160 nM
- GI50 (OVCAR-3 ovarian): 521 nM
- TGI (OVCAR-3 ovarian): 1320 nM
- GI50 (LOX IMVI melanoma): 177 nM
- TGI (LOX IMVI melanoma): 829 nM
- GI50 (SF-268 CNS): 37.3 nM
- TGI (SF-268 CNS): 555 nM
- GI50 (EKVX NSCLC): 917 nM
- TGI (EKVX NSCLC): 2220 nM
- GI50 (MDA-MB-435): 413 nM
- TGI (MDA-MB-435): 1090 nM
- GI50 (MDA-MB-231 breast): 293 nM
- TGI (MDA-MB-231 breast): 827 nM
- GI50 (RPMI-8226 leukemia): 19.9 nM
- TGI (RPMI-8226 leukemia): 226 nM
- GI50 (HL-60(TB) leukemia): 28.5 nM
- TGI (HL-60(TB) leukemia): 327 nM
- GI50 (HOP-62 NSCLC): 38.9 nM
- TGI (HOP-62 NSCLC): 428 nM
- GI50 (NCI/ADR-RES ovarian): 594 nM
- TGI (NCI/ADR-RES ovarian): 1450 nM
- GI50 (MALME-3M melanoma): 752 nM
- TGI (MALME-3M melanoma): 1710 nM
- GI50 (HCT-15 colon): 351 nM
- TGI (HCT-15 colon): 1010 nM
